pKd: −log10 of the molar value. Like-named read-outs stand apart in the source and are kept apart here.
Tests used:
yeast Tango2p [1] = biological target: T1, yeast Tango2p (Saccharomyces cerevisiae, UniProt P53275); experiment: UV-vis difference spectra titration; format: binding
T1 sequence (P53275 1-312): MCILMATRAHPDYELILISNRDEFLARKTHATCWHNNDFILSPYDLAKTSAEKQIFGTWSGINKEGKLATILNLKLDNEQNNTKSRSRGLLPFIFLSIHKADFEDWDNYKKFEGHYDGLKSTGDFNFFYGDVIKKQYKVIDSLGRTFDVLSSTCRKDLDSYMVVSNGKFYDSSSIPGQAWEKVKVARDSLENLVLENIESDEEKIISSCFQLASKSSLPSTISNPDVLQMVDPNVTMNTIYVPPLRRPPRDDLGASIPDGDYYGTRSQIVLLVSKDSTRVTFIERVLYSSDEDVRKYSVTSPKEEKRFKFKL

yeast Tango2p [2] = biological target: T1, yeast Tango2p; experiment: UV-vis difference spectra titration; format: binding; remark: listed apart in the source

Molecule `C=CC1=C(C)C2=Cc3c(C=C)c(C)c4[n]3[Fe][n]3c(c(C)c(CCC(=O)O)c3=CC3=NC(=C4)C(C)=C3CCC(=O)O)=CC1=N2` [ferric haem] has a pKd (yeast Tango2p [1]) of 4.41.

`C=CC1=C(C)C2=Cc3c(C=C)c(C)c4[n]3[Fe][n]3c(c(C)c(CCC(=O)O)c3=CC3=NC(=C4)C(C)=C3CCC(=O)O)=CC1=N2` [ferrous haem] was tested, and the pKd (yeast Tango2p [2]) was 4.81.
